Measured values reported in patent US20060089824A1, “Methods and systems for drug screening and computational modeling” (priority 2002, published 2006).

Target: D1 receptor (Homo sapiens, UniProt P21728)
Experiment: Calculated fraction of D1 receptors occupied from Ki and free drug concentration
Conditions: at a therapeutic olanzapine level
From the text: In particular, affinities of many drugs for receptors are well known. For example, Goodman and Gilmans “The Pharmacological Basis of Therapeutics,” Tenth Edition. […] [formula]

Chain of D1 receptor (P21728 whole entry): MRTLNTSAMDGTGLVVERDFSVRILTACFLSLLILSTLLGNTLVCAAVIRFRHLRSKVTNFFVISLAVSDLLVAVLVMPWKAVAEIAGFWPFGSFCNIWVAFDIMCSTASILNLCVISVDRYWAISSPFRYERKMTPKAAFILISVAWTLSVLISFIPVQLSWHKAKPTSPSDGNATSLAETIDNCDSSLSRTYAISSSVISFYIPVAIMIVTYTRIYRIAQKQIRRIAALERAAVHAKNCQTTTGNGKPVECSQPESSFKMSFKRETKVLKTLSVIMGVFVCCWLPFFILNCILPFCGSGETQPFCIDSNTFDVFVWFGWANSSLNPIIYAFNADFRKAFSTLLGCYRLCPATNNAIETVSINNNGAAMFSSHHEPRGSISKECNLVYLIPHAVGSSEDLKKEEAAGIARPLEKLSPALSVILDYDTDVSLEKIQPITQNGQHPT

Cc1cc2c(s1)Nc1ccccc1N=C2N1CCN(C)CC1 [olanzapine]
D1 receptors blocked (antagonized): approximately 47%
